# Experimental data from patent US10251894B2, “Anticonvulsant activity of steroids” (The Regents of the University of California, priority 2012, dated 2019).
# Tests used:
# [1] = tested on: 6 Hz electrical stimulus seizures; experiment: 6-Hz seizure test (6-Hz electrical-stimulation, 32 mA, 3 s, model); format: in vivo, mouse; conditions: mice
# Description: (§1) The mouse 6 Hz and pentylenetetrazol seizure models were used. Solutions of 5α,3α-P were made in 6% (0.5 and 1.5 mg/ml) sulfobutylether-β-cyclodextrin sodium salt (Captisol®) in 0.9% saline. The solutions were injected i.v. or i.m. (1, 2 and 30 min or 2 and 30 min, respectively) prior to administration of the 6 Hz electrical stimulus or PTZ (80 mg/kg, i.p.). […] Anticonvulsant activity was assessed by the delay in onset of seizure signs. Allopregnanolone plasma levels in rats were determined by LC-MS.
# (§2) Animals. Male NIH Swiss mice (22-30 g) served as subjects, and all procedures used in these studies were conducted in accordance with the University of California, Davis, Institutional Animal Care and Use Committee the Animal Care and Use policies in strict compliance with the Guide for the Care and Use of Laboratory Animals of the National Research Council (National Academy Press, Washington, D.C.; on the internet at nap.edu/readingroom/books/labrats/).
# (§3) Test Substances and Drug Administration. Allopregnanolone (3α-hydroxy-5α-pregnan-20-one; 5α,3α-P) was synthesized by a SAFC Pharma Inc, Madison, Wis., USA and Captisol (sulfobutylether-beta-cyclodextrin sodium salt) was provided by Ligand Pharmaceuticals, Inc. La Jolla, Calif., USA. Solutions of 5α,3α-P were made in 6% (0.5 and 1.5 mg/ml) or 24% ([…]) sulfobutylether-β-cyclodextrin sodium salt (Captisol®) in 0.9% saline. The volumes used for all injections were 10-20 ml/kg of body weight. In order to establish time courses for protection by 5α,3α-P in the 6-Hz electrical-stimulation (32 mA, 3 s) model, 5α,3α-P (0.5-6 mg/kg) was administered intravenously (i.v.), intramuscularly (i.m.), subcutaneously (s.c.) or orally (p.o.) before electrical stimulation. In the PTZ seizure test, 5α,3α-P or vehicle were administered i.v. or i.m. 1, 2 or 30 min before PTZ.
# 6-Hz Seizure Test (Kaminski, et al., Epilepsia (2004) 45:1-4): 3-s corneal stimulation (200-μs duration, 32-mA monopolar rectangular pulses at 6 Hz) was delivered by a constant-current device (ECT Unit 5780; Ugo Basile, Comerio, Italy). […] The experimental end point was protection against the seizure: an animal was considered to be protected if it resumed its normal exploratory behavior within 10 s of stimulation.
# [2] = tested on: PTZ (80 mg/kg, i.p.) seizures; experiment: Pentylenetetrazol (PTZ) seizure test; format: in vivo, mouse; conditions: mice
# Description: as §1, §2, §3
# The time of onset of myoclonic jerks, clonus and tonic extension was recorded.
# Data Analysis. Results are expressed as mean±S.E.M.; the significance of the difference in the responses of treatment groups with respect to control is based on one-way analysis of variance (ANOVA) followed by specific post hoc comparisons using Dunnett's test. Differences were considered statistically significant when the probability of error was less than 0.05 (p<0.05).
# [3] = Plasma allopregnanolone after single i.v. injection (LC-MS); format: in vivo, rat; conditions: rats
# Description: FIG. 10 illustrates a Time—concentration profile for plasma allopregnanolone (5α,3α-P) after single i.v. injection in rats. Rats bearing indwelling jugular catheters received single i.v. injection of 5α,3α-P or vehicle and serial blood samples were withdrawn at 1, 2, 10,15, 30, 60 and 120 min after injection. Plasma was assayed for 5α,3α-P by LC-MS. Each point represents at least 4 animals.
# as §1
# Surgery and Blood Collection. Male rats were implanted with indwelling jugular catheters as described (Baumann, et al., J Neurosci. (1998) 18: 9069-77). Animals were allowed to recover for at least one week. Experiments were carried out while the animal resided in its home cage. Rats received i.v. injection of vehicle or 5α,3α-P and serial blood samples were withdrawn into chilled tubes at 1, 2, 10,15, 30, 60 and 120 min after i.v. injection. 5α,3α-P and D4-5α,3α-P (internal standard) were extracted with SPE method from rat's plasma. The extracted 5α,3α-P and D4-5α,3α-P were quantified with ultra-performance liquid chromatography (UPLC)/Atmospheric-pressure chemical ionization (APCI)/tandem mass spectrometry (MS/MS).
# [4] = 0.5 mg/kg i.v. 1 min before PTZ
# [5] = i.v. bolus, 0.5 and 1.0 mg/kg pooled
smiles,measurement,setting,value
"CC(=O)[C@H]1CC[C@H]2[C@@H]3CC[C@H]4C[C@H](O)CC[C@]4(C)[C@H]3CC[C@]12C [5α,3α-P, 3α-hydroxy-5α-pregnan-20-one]",duration of protective activity in the 6 Hz test,[1]; i.m. 3 mg/kg,< 2 h
same,onset of protective activity in the 6 Hz test,[1]; i.m. 3 mg/kg,≤ 2 min
same,protective activity in the 6 Hz test at 30 min,"[1]; i.v. 1.5 mg/kg, 30 min after infusion",inactive
same,time after injection with protective activity in the 6 Hz test,[1]; i.v. infusion 1.5 mg/kg,1 to 15 min
same,bioavailability after oral administration,"[1]; p.o. in the 6-Hz model, inferred from time course",Low bioavailability
same,delay of seizure onset in the PTZ model,"[2]; 0.1 mg/kg i.v., all pretreatment times (1, 2 and 30 min)",failed to significantly delay seizure onset
same,animals protected from tonic seizures,[2]; 0.25 mg/kg i.m. 2 min before PTZ,0%
same,animals protected from tonic seizures,[2]; 0.5 mg/kg i.m. 2 min before PTZ,50%
same,animals in which tonic seizures and mortality were prevented,[2]; [4],62.5%
same,delay for myoclonic jerks and clonic seizures,[2]; [4],marked delay
same,animals in which tonic seizures were prevented,[2]; 0.5 mg/kg i.v. 2 min before PTZ,25%
same,animals protected from tonic seizures,[2]; 1.5 mg/kg i.m. 2 min before PTZ,100%
same,protection against tonic seizures,[2]; 1.5 mg/kg i.m. 30 min before PTZ,significant protection
same,prevention of tonic seizures and mortality,[2]; 1.5 mg/kg i.v. 1 and 2 min before PTZ,completely prevented
same,protection against tonic seizures,[2]; 1.5 mg/kg i.v. 30 min before PTZ,inactive
same,mean peak plasma level (2 min),[3]; i.v. bolus 0.5 mg/kg,337 ng/mL
same,mean peak plasma level (2 min),[3]; i.v. bolus 1.0 mg/kg,746 ng/mL
same,"pooled mean halftime, first component",[3]; [5],2 min
same,"pooled mean halftime, second component",[3]; [5],22 min
